Values quoted from earlier work in US10285382B2 (priority 2017, dated 2019).
Read-outs that look alike come from different tables or passages of the source.

Experiments:
Conditions in all cases: cited from earlier work
[1] = system: Salmonella
[2] = system: broiler eggs
[3] = system: shell surface bacteria
[4] = dipping eggs in 6% H2O2 solution twice, Padron (1995)

## OO [H2O2, hydrogen peroxide]
[1]; […] solution applied with a vacuum and a surfactant, Cox et al.
  treated eggs remaining contaminated: 30%
[1]; [4]
  reduction of the number of Salmonella in eggshell membranes: 95%
  reduction of the numbers of positive eggs: 55%
[2]; broiler eggs, […] fogged, Bailey et al. (1996)
  effect on hatchability: did not significantly reduce, or improve
[2]; in vivo
  effect on hatchability: no adverse effect
[3]; 3% solution combined with ultraviolet light, Wells et al. (2010)
  log reduction in bacterial counts (cfu/egg): ≤ 3 log
[3]; Sheldon and Brake (1991)
  H2O2 concentration required to disinfect shell surfaces: 5 % (vol/vol)
